In brackets after ≈: the same amount, converted by molar mass.
Key:
Test in all cases: MIC serial dilution assay
Format in all cases: cell-based
[1] = test system: Escherichia coli; conditions: Escherichia coli DSM1116; overnight, 37 °C; reference oxytetracycline 0.1 mg/mL; read-out: Minimum Inhibitory Concentration (MIC)
Description: (§1) Compounds 1, 2, 4 and 5 were dissolved in MeOH (1 mg/mL) for the antimicrobial activity assay, while compound 3 was dissolved in MeOH: DMSO 9+1 (1 mg/mL). The solvents were also used as negative controls.
(§2) Minimum inhibitory concentrations (MIC) were determined in a serial dilution assay, as described previously; a detailed protocol can be found in the Supporting Information. The compounds (1 mg/mL) were diluted to a range of 66.7 to 0.52 µg/mL and incubated with the test organisms overnight. Inhibition of growth was visually evaluated the next day: the MIC is defined as the lowest concentration of the test compound where no growth of the test organism was observed. Various test organisms of fungal and bacterial origin were tested to cover a broad range of microorganisms. This selection is also being used as a standard test panel in our attempts to discover new anti-infectives, as it represents a broad spectrum of pathogens of clinical interest, as well as sensitive indicator strains (bacteria: Bacillus subtilis, Staphylococcus aureus, Micrococcus luteus, Chromobacterium violaceum, Escherichia coli and Pseudomonas aeruginosa; mycobacteria: Mycolicibacterium smegmatis and fungi: Candida albicans, Schizosaccharomyces pombe, Mucor hiemalis, Pichia anomala and Rhodotorula glutinis).
(§3) Protocol: Antimicrobial Activi ty Assay
(§4) The assay was conducted as a minimum inhi bitory concentration (MIC) assay in 96-well ro und-bottom mi crotiter pl ate s usi ng the p ar ameter s su mm ari zed i n T a bl e S 1 and as already described i n [S1].
(§5) Stocks of the test organi sms were generated by growing the organisms o ver ni ght i n 50 mL shaki ng fl asks fi ll ed wi th 25 mL of the growth medi um at 140 rpm (for media and temperatures see Table S1). If the organisms were well grown the ne xt day, which was checked by occurrence of an optical density (OD)>30 of the suspension (OD600 nm for bacteria, OD548 nm for fungi and M. smegma tis) , aliquots of these were stored i n 1.5 mL reaction tube s in a freezer at −80 °C for up to 12 mo nths . Upon use, aliquots were unth awed and the OD of the suspension measured and adjusted by diluting with the respective growth medi um. OD600 nm w as adj usted to 0.01 and OD548 nm to 0.1.
(§6) Subse que ntly, 150 µL o f the adjusted suspensions were added to all wells of a 96-wel l microtiter pl ate (one test organi sm per plate). In row A, additional 130 µL of suspensions plus 20 µL of the test compounds (1 mg/mL) and the controls (one compound/column) were added. MeOH as well as MeOH:DMSO 9+1 were used as negative controls, while different positive controls (refer ences) were used for the test organisms (see Tabl e S1). Then, starti ng from row A, 150 µ L of the suspension were transferred to the next row, the contents thoroughly mixed, and 150 µ L transferred to the following row.
(§7) The remaining 150 µ L after row H were discarded. […]
(§8) compounds, ranging from 66.7 µg/mL i n row A to 0.52 µg/mL i n row H.
(§9) The microtiter plates were then incubated overnight o n a microplate shaker at 800 rpm at 30 or 37 °C (see Table S1) and were visually evaluated the next day. The MIC is defined as the lowest concentration were no growth of the test organism was o bserved. A lower MIC thus corresponds to a higher antimicrobial activity of the test compound.
(§10) Table S1: MIC assay ex per i men t parameters test organism strain No. growth incubation positive control (reference) […]
Escherichia coli DSM1116 MHB 1 37 oxytetr acyclin 0.1 mg/mL […]
(§11) Rhodotorula glutinis DSM10134 MYC 3 30 nyst ati n 1.0 mg/mL
(§12) 1 MHB: Müller-Hinton Broth (SN X927.1, Ca r l Roth GmbH, Karlsruhe, Germany) 2 7H9+ADC: Middlebrook 7H9 Broth Base + Middlebrook ADC Growth Supplement (SN M0678+M0553, Merck, Darmstadt, Germany)
(§13) 3 MYC: 1 % w/v, bacto peptone, 1% w/v yeast extract, 2 % w /v glycerol, pH 6.3 [S1] Helaly, S.E.; Ashrafi, S.; Teponno, R.B.; Bernecker, S.; Dababat, A.A.; Maier, W.; Stadler, M.
(§14) Nematicidal Cyclic Lipodepsipeptides and a Xanthocillin Derivative from a Phaeosphariaceous […]

[2] = test system: Chromobacterium violaceum; conditions: Chromobacterium violaceum DSM30191; overnight, 30 °C; reference oxytetracycline 0.1 mg/mL; read-out: Minimum Inhibitory Concentration (MIC)
Description: as §1, §2, §3, §4, §5, §6, §7, §8, §9, §10
Chromobacterium DSM30191 MHB 1 30 oxytetr acyclin 0.1 mg/mL […]
as §11, §12, §13, §14

[3] = test system: Schizosaccharomyces pombe; conditions: Schizosaccharomyces pombe DSM70572; overnight, 30 °C; reference nystatin 1 mg/mL; read-out: Minimum Inhibitory Concentration (MIC)
Description: as §1, §2, §3, §4, §5, §6, §7, §8, §9, §10
Schizosaccharomyces DSM70572 MYC 3 30 nyst ati n 1.0 mg/mL […]
as §11, §12, §13, §14

[4] = test system: Candida albicans; conditions: Candida albicans DSM1665; overnight, 30 °C; reference nystatin 1 mg/mL; read-out: Minimum Inhibitory Concentration (MIC)
Description: as §1, §2, §3, §4, §5, §6, §7, §8, §9, §10
Candida albicans DSM1665 MYC 3 30 nyst ati n 1.0 mg/mL […]
as §11, §12, §13, §14

[5] = test system: Staphylococcus aureus; conditions: Staphylococcus aureus DSM346; overnight, 30 °C; reference oxytetracycline 0.1 mg/mL; read-out: Minimum Inhibitory Concentration (MIC)
Description: as §1, §2, §3, §4, §5, §6, §7, §8, §9, §10
Staphylococcus aureus DSM346 MHB 1 30 oxytetr acyclin 0.1 mg/mL […]
as §11, §12, §13, §14

[6] = test system: Mucor hiemalis; conditions: Mucor hiemalis DSM2656; overnight, 30 °C; reference nystatin 1 mg/mL; read-out: Minimum Inhibitory Concentration (MIC)
Description: as §1, §2, §3, §4, §5, §6, §7, §8, §9, §10
Mucor hiemalis DSM2656 MYC 3 30 nyst ati n 1.0 mg/mL […]
as §11, §12, §13, §14

[7] = test system: Pichia anomala; conditions: Hansenula anomala; Pichia anomala DSM6766; overnight, 30 °C; reference nystatin 1 mg/mL; read-out: Minimum Inhibitory Concentration (MIC)
Description: as §1, §2, §3, §4, §5, §6, §7, §8, §9, §10
Pichia anomala DSM6766 MYC 3 30 nyst ati n 1.0 mg/mL
as §11, §12, §13, §14

[8] = test system: Bacillus subtilis; conditions: Bacillus subtilis DSM10; overnight, 30 °C; reference oxytetracycline 1 mg/mL; read-out: Minimum Inhibitory Concentration (MIC)
Description: as §1, §2, §3, §4, §5, §6, §7, §8, §9, §10
Bacillus subtilis DSM10 MHB 1 30 oxytetr acyclin 1.0 mg/mL […]
as §11, §12, §13, §14

[9] = test system: Mycolicibacterium smegmatis; conditions: Mycolicibacterium smegmatis ATCC700084; overnight, 37 °C; reference kanamycin 0.1 mg/mL; read-out: Minimum Inhibitory Concentration (MIC)
Description: as §1, §2, §3, §4, §5, §6, §7, §8, §9, §10, §11, §12, §13, §14

[10] = test system: Rhodotorula glutinis; conditions: Rhodotorula glutinis, DSM10134, Rhodotorula glutinis DSM10134; overnight, 30 °C; reference nystatin 1 mg/mL; read-out: Minimum Inhibitory Concentration (MIC)
Description: as §1, §2, §3, §4, §5, §6, §7, §8, §9, §10, §11, §12, §13, §14

SMILES	MIC [1]	MIC [2]	MIC [3]	MIC [4]	MIC [5]	MIC [6]	MIC [7]	MIC [8]	MIC [9]	MIC [10]
COc1cccc2c3c(ccc12)-c1ccc(O)c2c(OC)ccc-3c12 [Compound 3, viridistratin C]	> 66.7 µg/mL	> 66.7 µg/mL	> 66.7 µg/mL	> 66.7 µg/mL	> 66.7 µg/mL	> 66.7 µg/mL	> 66.7 µg/mL	> 66.7 µg/mL	> 66.7 µg/mL	> 66.7 µg/mL
COc1cccc2c3c(ccc12)-c1ccc(O)c2c(O)ccc-3c12 [Compound 2, viridistratin B]	> 66.7 µg/mL	66.7 µg/mL (≈ 212 µM)	33.3 µg/mL (≈ 106 µM)	> 66.7 µg/mL	16.7 µg/mL (≈ 53.1 µM)	4.2 µg/mL (≈ 13.4 µM)	33.3 µg/mL (≈ 106 µM)	16.7 µg/mL (≈ 53.1 µM)	33.3 µg/mL (≈ 106 µM)	33.3 µg/mL (≈ 106 µM)
Oc1cccc2c3c(ccc12)-c1ccc(O)c2c(O)ccc-3c12 [Compound 1, viridistratin A]	> 66.7 µg/mL	66.7 µg/mL (≈ 222 µM)	66.7 µg/mL (≈ 222 µM)	> 66.7 µg/mL	66.7 µg/mL (≈ 222 µM)	66.7 µg/mL (≈ 222 µM)	66.7 µg/mL (≈ 222 µM)	33.3 µg/mL (≈ 111 µM)	> 66.7 µg/mL	33.3 µg/mL (≈ 111 µM)
O=C1CCC(=O)c2c1c(O)cc1c2-c2ccc(O)c3c(O)ccc-1c23 [Compound 5, truncatone C]	> 66.7 µg/mL	> 66.7 µg/mL	> 66.7 µg/mL	> 66.7 µg/mL	> 66.7 µg/mL	66.7 µg/mL (≈ 201 µM)	> 66.7 µg/mL	66.7 µg/mL (≈ 201 µM)	> 66.7 µg/mL	–
O=C1C[C@H]2C(=C3CCC(=O)c4c(O)ccc2c43)c2cccc(O)c21 [Compound 4, truncatone A]	> 66.7 µg/mL	> 66.7 µg/mL	> 66.7 µg/mL	> 66.7 µg/mL	> 66.7 µg/mL	> 66.7 µg/mL	> 66.7 µg/mL	> 66.7 µg/mL	> 66.7 µg/mL	> 66.7 µg/mL

Source: PMC7277860, “Viridistratins A−C, Antimicrobial and Cytotoxic Benzo[j]fluoranthenes from Stromata of Annulohypoxylon viridistratum (Hypoxylaceae, Ascomycota)” (Biomolecules, 2020)
